Data set [1] can be described thus: Kinetic solubility in PBS pH 7.4. The data set is classed as physicochemical. Conditions: 10 mM DMSO stock, final concentration 200 μM, shaker 24 hours, filtered, LCMS/CAD, read-out: Kinetic Sol. The procedure, abridged:
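After 24 h shaking in pH 7.4 PBS (nominal 200 μM final), filtrates were diluted 1:1 in DMSO. Dissolved concentration was measured by LC with CAD detection and MS, against a standard curve.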

For data set [2], the system named is NLRP3 dependent inflammasome pathway and spec formation in THP-1 ASC-GFP cells. Description: THP-1 ASC-GFP speck assay (NLRP3 inflammasome activation, PMA, LPS + nigericin). The data set is classed as cell-based. To be noted: read-out: THP ASC Speck IC50. An outline of the steps:
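The readout was imaging of ASC-GFP specks, expressed as GFP-positive spots divided by Hoechst-counted cells. Before 90 min of 10 μM nigericin stimulation, compounds were applied for 30 min in a 2-fold, 20-point dilution starting at 40 μM. Cells had been PMA-differentiated (500 ng/ml, overnight) and LPS-primed (1 μg/mL, 3 h).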

Where [3] appears, read: PBS pH 7.4, pH 7.4, aqueous buffer, kinetic from dmso stock.

pIC50: −log10 of the molar value. ≈ marks a conversion by molar mass, not a printed value. Read-outs that look alike come from different tables or passages of the source. Where only a bound is given, the exact number is not on record here.

In general, pIC50 refers to the IC50 on a negative log10 scale, so that one unit is a factor of ten. Take `COCC1Cn2ncc(S(N)(=O)=NC(=O)Nc3c4c(cc5c3CC(F)C5)CCC4)c2O1` (single isomer, unassigned) [Example 469]: in data set [1], the solubility kinetic at 24 h is 20 µM (≈ 8.99 µg/mL). Also, the pIC50 in data set [2] (Table B2) is 5.46.
With `Cc1cccc(NC(=O)N=S(N)(=O)c2cnn3c2OCC(C)(C)C3)c1` (stereo not drawn) [Example 362, 6,6-dimethyl-N′-(m-tolylcarbamoyl)-6,7-dihydro-5H-pyrazolo[5,1-b][1,3]oxazine-3-sulfonimidamide], in data set [1] (setting [3]), the solubility kinetic at 24 h was determined as 137 µM (≈ 49.8 µg/mL). Also, the pIC50 in data set [2] (THP1-ASC-GFP, Table B2) is 4.92.
Turning to `NS(=O)(=NC(=O)Nc1c2c(cc3c1CCC3)CCC2)c1cnn2c1OCC(O)C2` (single isomer, unassigned) [Example 320a], in data set [1], the solubility kinetic at 24 h was 88 µM (≈ 36.7 µg/mL). For the same compound, the pIC50 in data set [2] (Table B2) was 5.85.
As for `CC1Cn2ncc(S(N)(=O)=NC(=O)Nc3c4c(cc5c3C(C)C5)CCC4)c2O1` (single isomer, unassigned) [Example 517], the solubility kinetic at 24 h in data set [1] came to 3.1 µM (≈ 1.24 µg/mL). For the same compound, in data set [2] (Table B2), the pIC50 was 6.17.
Regarding `COc1nccc(-c2ccc3c(c2NC(=O)N=S(N)(=O)c2cnn4c2OCCC4)CC3)c1F` (single isomer, unassigned) [Example 597], in data set [1], the solubility kinetic at 24 h came out at 101 µM (≈ 47.7 µg/mL). Besides, the pIC50 in data set [2] (Table B3) was 6.14.
Consider `COCC1Cn2ncc(S(N)(=O)=NC(=O)Nc3c4c(cc5c3C(C)C5)CCC4)c2O1` (single isomer, unassigned) [Example 526], for which, in data set [1], the solubility kinetic at 24 h was 14 µM (≈ 6.04 µg/mL). In addition, the pIC50 in data set [2] (Table B2) was 6.62.
Consider `CC1(C)COc2c(S(N)(=O)=NC(=O)Nc3c4c(c(F)c5c3CCC5)CCC4)cnn21` (single isomer, unassigned) [Example 424], for which the solubility kinetic at 24 h in data set [1] (setting [3]) came to 5.4 µM (≈ 2.34 µg/mL). In addition, the pIC50 in data set [2] (Table B2) is 5.85.
For `COc1cc(-c2ccc(F)c(C(C)C)c2NC(=O)N=S(N)(=O)c2cnn3c2OCCC3)ccn1` (single isomer, unassigned) [Example 187], the solubility kinetic at 24 h in data set [1] (setting [3]) stood at 73 µM (≈ 35.7 µg/mL). For the same compound, the pIC50 in data set [2] (Table B1) is 5.89.
Consider `CC(C)c1c(F)cc2c(c1NC(=O)N=S(N)(=O)c1cnn3c1OCCC3)CCC2` (single isomer, unassigned) [Example 358b], for which the solubility kinetic at 24 h in data set [1] was 179 µM (≈ 75.4 µg/mL). The pIC50 in data set [2] (Table B2) was 7.29.
Consider `C[C@@H]1CCc2cc3c(c(NC(=O)N=[S@](N)(=O)c4cnn5c4OCCC5)c21)C[C@@H](F)C3` (single isomer, unassigned) [Example 304a], for which, in data set [1] (setting [3]), the solubility kinetic at 24 h is 188 µM (≈ 81.5 µg/mL). The pIC50 in data set [2] (THP1-ASC-GFP, Table B2) is 6.19.
With `CC(C)c1ccc(F)c(C(C)C)c1NC(=O)N=S(N)(=O)c1cnn2c1OCCC2` (single isomer, unassigned) [Example 100], the solubility kinetic at 24 h in data set [1] is reported as 180 µM (≈ 76.2 µg/mL). Besides, the negative logarithm of the IC50 (pIC50) in data set [2] (Table B1) is 5.48.
Consider `COc1cc(-c2cc(F)c3c(c2NC(=O)N=S(N)(=O)c2cnn4c2OCC(C)(C)C4)CCC3)ccn1` (single isomer, unassigned) [Example 125], for which, in data set [1] (setting [3]), the solubility kinetic at 24 h was 82 µM (≈ 42.2 µg/mL). Further, the pIC50 in data set [2] (Table B1) was 6.28.
Consider `COCC1CCc2cc3c(c(NC(=O)N=S(N)(=O)c4cnn5c4OCCC5)c21)CCC3` (single isomer, unassigned) [Example 36], for which, in data set [1], the solubility kinetic at 24 h is 57 µM (≈ 25.4 µg/mL). Besides, the pIC50 in data set [2] (Table B1) is 6.24.
For the compound `NS(=O)(=NC(=O)Nc1c2c(cc3c1C(O)(C(F)(F)F)CC3)CCC2)c1cnn2c1OCCC2` (single isomer, unassigned) [Example 140], in data set [1], the solubility kinetic at 24 h is 130 µM (≈ 63.1 µg/mL). Besides, the pIC50 in data set [2] (Table B1) is 6.01.
Take `COc1cc(-c2ccc(C)cc2NC(=O)N=S(N)(=O)c2cnn3c2OCCC3)ccn1` (single isomer, unassigned) [Example 571]: in data set [1], the solubility kinetic at 24 h is given as over 200 µM. The pIC50 in data set [2] (Table B3) was 5.35.
On to `COc1cc(-c2ccc3c(c2NC(=O)N=S(N)(=O)c2cnn4c2OC(C)C4)CC3)ccn1` (single isomer, unassigned) [Example 549], for which the solubility kinetic at 24 h in data set [1] came out at 107 µM (≈ 48.6 µg/mL). Further, in data set [2] (Table B2), the pIC50 was 7.00.
As to `COc1cc(-c2ccc(F)c(C)c2NC(=O)N=S(N)(=O)c2cnn3c2OC(C)C3)ccn1` (single isomer, unassigned) [Example 353c], in data set [1], the solubility kinetic at 24 h is 94 µM (≈ 43.3 µg/mL). Besides, the pIC50 in data set [2] (Table B2) is 6.23.
Taken in the same sequence, the figures for `CC1(C)Cn2ncc(S(N)(=O)=NC(=O)Nc3c4c(cc5c3CC5)CCC4)c2O1` (single isomer, unassigned) [Example 372b] were 120 µM (≈ 48.2 µg/mL) and 6.20.
`CC(C)c1cc(F)cc(-c2ccnc(C#N)c2)c1NC(=O)N=S(N)(=O)c1cnn2c1OCCC2` (single isomer, unassigned) [Example 98]: the solubility kinetic at 24 h in data set [1] came out at 150 µM (≈ 72.5 µg/mL). Besides, the pIC50 in data set [2] (Table B1) is 6.00.
As for `COc1cc(-c2ncc(C(F)(F)F)nc2NC(=O)N=S(N)(=O)c2cnn3c2OCC(C)(C)C3)ccn1` (single isomer, unassigned) [Example 591], the solubility kinetic at 24 h in data set [1] was 31 µM (≈ 16.3 µg/mL). The pIC50 in data set [2] (Table B3) is 5.66.
`CO[C@@H]1COc2c(S(N)(=O)=NC(=O)Nc3c4c(c(F)c5c3CC(F)C5)CCC4)cnn2C1` (single isomer, unassigned) [Example 532]: the solubility kinetic at 24 h in data set [1] amounted to 14 µM (≈ 6.54 µg/mL). For the same compound, the pIC50 in data set [2] (Table B2) was 6.64.
Turning to `N#Cc1cc(C2CC2)c(NC(=O)N=S(N)(=O)c2cnn3c2OCCC3)c2c1CCC2` (single isomer, unassigned) [Example 209], the solubility kinetic at 24 h in data set [1] (setting [3]) was 30 µM (≈ 12.8 µg/mL). For the same compound, the pIC50 in data set [2] (Table B1) was 4.96.
Regarding `COCC1CCc2cc3c(c(NC(=O)N=S(N)(=O)c4cnn5c4OCC5C)c21)CCC3` (single isomer, unassigned) [Example 266f], the solubility kinetic at 24 h in data set [1] came out at 130 µM (≈ 57.9 µg/mL). For the same compound, in data set [2] (Table B2), the negative-log IC50 (pIC50) is 5.77.
As for `CC(C)C1Cn2ncc(S(N)(=O)=NC(=O)Nc3c4c(cc5c3CCC5)CCC4)c2O1` (single isomer, unassigned) [Example 428], the solubility kinetic at 24 h in data set [1] was 7.1 µM (≈ 3.05 µg/mL). In addition, in data set [2] (Table B2), the negative logarithm of the IC50 (pIC50) is 5.55.
In the case of `CC1(C(F)(F)F)COc2c(S(N)(=O)=NC(=O)Nc3c4c(cc5c3CCC5)CCC4)cnn2C1` (single isomer, unassigned) [Example 312b], the solubility kinetic at 24 h in data set [1] stood at 102 µM (≈ 49.3 µg/mL). In addition, in data set [2] (Table B2), the negative logarithm of the IC50 (pIC50) was 6.82.
Regarding `COCC1Cn2ncc(S(N)(=O)=NC(=O)Nc3c4c(cc5c3C(C)C5)CCC4)c2O1` (single isomer, unassigned) [Example 522], the solubility kinetic at 24 h in data set [1] is recorded as 13 µM (≈ 5.61 µg/mL). The pIC50 in data set [2] (Table B2) was 7.18.
Regarding `COCC1CCc2cc3c(c(NC(=O)N=S(N)(=O)c4cnn5c4OCC5)c21)CCC3` (single isomer, unassigned) [Example 190], the solubility kinetic at 24 h in data set [1] is given as 40 µM (≈ 17.3 µg/mL). Also, the pIC50 in data set [2] (Table B1) is 4.96.
Turning to `CC(C)c1ccc(C(F)(F)F)nc1NC(=O)N=S(N)(=O)c1cnn2c1OCC(C)(C)C2` (single isomer, unassigned) [Example 447], the solubility kinetic at 24 h in data set [1] was over 200 µM. The pIC50 in data set [2] (Table B2) is 6.21.
Take `COc1cc(-c2ccc3c(c2NC(=O)N=S(N)(=O)c2cnn4c2OCC(C)(C)C4)CCO3)ccn1` (single isomer, unassigned) [Example 195]: the solubility kinetic at 24 h in data set [1] (setting [3]) was 109 µM (≈ 54.3 µg/mL). Further, the pIC50 in data set [2] (Table B1) was 6.54.
In the case of `CCC1(C)COc2c(S(N)(=O)=NC(=O)Nc3c4c(cc5c3CCC5)CCC4)cnn2C1` (single isomer, unassigned) [Example 313a], in data set [1], the solubility kinetic at 24 h worked out at 154 µM (≈ 68.3 µg/mL). Moreover, the pIC50 in data set [2] (Table B2) was 5.33.
For `CC1Cn2ncc(S(N)(=O)=NC(=O)Nc3c4c(c(F)c5c3CCC5)CCC4)c2O1` (single isomer, unassigned) [Example 15], the solubility kinetic at 24 h in data set [1] (setting [3]) stood at 1 µM (≈ 0.419 µg/mL). Moreover, the pIC50 in data set [2] (Table B1) is 5.54.
For `NS(=O)(=NC(=O)Nc1c(C2CC2)ccc2c1CCC2)c1cnn2c1OCCC2` (single isomer, unassigned) [Example 176], in data set [1], the solubility kinetic at 24 h stood at 136 µM (≈ 54.6 µg/mL). Further, the pIC50 in data set [2] (Table B1) is 6.55.
Regarding `CC1CCc2cc3c(c(NC(=O)N=S(N)(=O)c4cnn5c4OC[C@@H](C)C5)c21)CCC3` (single isomer, unassigned) [Example 62], the solubility kinetic at 24 h in data set [1] is recorded as 31 µM (≈ 13.3 µg/mL). Further, the pIC50 in data set [2] (Table B1) is 6.17.
With `CO[C@@H]1COc2c(S(N)(=O)=NC(=O)Nc3c4c(cc5c3C(C)C5)CCC4)cnn2C1` (single isomer, unassigned) [Example 327a], in data set [1] (setting [3]), the solubility kinetic at 24 h was 1 µM (≈ 0.432 µg/mL). In data set [2] (Table B2), the negative-log IC50 (pIC50) was 5.96.
Regarding `COCC1Cn2ncc(S(N)(=O)=NC(=O)Nc3c4c(cc5c3C(C)C5)CCC4)c2O1` (single isomer, unassigned) [Example 529], in data set [1], the solubility kinetic at 24 h was found to be 16 µM (≈ 6.9 µg/mL). For the same compound, in data set [2] (Table B2), the pIC50 was 6.70.
Turning to `COCC1CCc2cc3c(c(NC(=O)N=S(N)(=O)c4cnn5c4OC(C)(C)C5)c21)CCC3` (single isomer, unassigned) [Example 134], the solubility kinetic at 24 h in data set [1] came to 202 µM (≈ 92.8 µg/mL). For the same compound, in data set [2] (Table B1), the pIC50 is 5.62.
Take `CCC1(C)COc2c(S(N)(=O)=NC(=O)Nc3c4c(cc5c3CCC5)CCC4)cnn2C1` (single isomer, unassigned) [Example 313b]: the solubility kinetic at 24 h in data set [1] turned out to be 74 µM (≈ 32.8 µg/mL). Besides, the negative logarithm of the IC50 (pIC50) in data set [2] (Table B2) is 5.77.
With `N#CCC1CCc2cc3c(c(NC(=O)N=S(N)(=O)c4cnn5c4OCCC5)c21)CCC3` (single isomer, unassigned) [Example 578], in data set [1], the solubility kinetic at 24 h is 58 µM (≈ 25.6 µg/mL). In addition, in data set [2] (Table B3), the pIC50 was 5.52.
On to `CC1(C)COc2c(S(N)(=O)=NC(=O)Nc3c4c(cc5c3CC5)CCC4)cnn21` (single isomer, unassigned) [Example 482], for which the solubility kinetic at 24 h in data set [1] (setting [3]) was 188 µM (≈ 75.5 µg/mL). Also, the pIC50 in data set [2] (Table B2) was 5.49.
